From the Deep4Chem optical property database
One block for each molecule: values may come before it.

Assay: solvent given as SMILES

Structure (SMILES): Cc1cc(C)c(C2=C3C=c4c(c5ccc(C(C)(C)C)cc5c5cc(C(C)(C)C)ccc45)=[N+]3[B-](F)(F)n3c2cc2c4ccc(C(C)(C)C)cc4c4cc(C(C)(C)C)ccc4c23)c(C)c1
absorption maximum (in C1CCCCC1): 693 nm
absorption maximum (in C1CCOC1): 692 nm
absorption maximum (in CC#N): 686 nm
absorption maximum (in Cc1ccccc1): 698 nm
absorption maximum (in ClCCl): 693 nm

Structure (SMILES): Cc1cc(C)c(B(c2cc(-c3ccc(C(F)(F)F)cc3)sc2-c2sc(-c3ccc(C(F)(F)F)cc3)cc2P(=O)(c2ccccc2)c2ccccc2)c2c(C)cc(C)cc2C)c(C)c1
absorption maximum (in CO): 389 nm

Structure (SMILES): CCC1=C(C2=C(C3=C(CC)S(=O)(=O)c4cc(-c5ccc(C)s5)ccc43)C(F)(F)C(F)(F)C2(F)F)c2ccc(-c3ccc(C)s3)cc2S1(=O)=O
absorption maximum (in C1COCCO1): 374 nm

Structure (SMILES): CCOC(=O)CSc1nc2c(c(C#N)c1C#N)CCCC2
absorption maximum (in c1ccccc1): 364 nm

Structure (SMILES): CCOC(=O)c1c(-c2cc3cc(OC)ccc3oc2=O)nn(-c2cccc(C)c2)c1C(=O)OCC
absorption maximum (in ClCCl): 351 nm

Structure (SMILES): CCCCCCCCCCOc1ccc2c3c(oc2c1)C1=C2C(=O)N4C=Cc5c(oc6cc(OCCCCCCCCCC)ccc56)C4=C2C(=O)N1C=C3
absorption maximum (in CN(C)C=O): 648 nm
absorption maximum (in ClC(Cl)Cl): 648 nm

Structure (SMILES): O=S(=O)(c1cccc(N2c3ccccc3Oc3ccccc32)c1)c1cccc(N2c3ccccc3Oc3ccccc32)c1
absorption maximum (in C1CCOC1): 317 nm
absorption maximum (in Cc1ccccc1): 308 nm
absorption maximum (in ClC(Cl)Cl): 315 nm

Structure (SMILES): CC1=CC(C)(C)N(C)c2cc3c(cc21)C(c1ccc(Br)cc1)=c1cc2c(cc1O3)=[N+](C)C(C)(C)C=C2C
absorption maximum (in CCO): 594 nm

Structure (SMILES): CCOC(=O)CN1C(=O)C2=C(c3ccc(N4CCCCC4)cc3)N(CC(=O)OCC)C(=O)C2=C1c1ccccc1
absorption maximum (in CC#N): 500 nm
absorption maximum (in CS(C)=O): 516 nm
absorption maximum (in Cc1ccccc1): 499 nm

Structure (SMILES): CCCCCCCCN1c2ccccc2Sc2cc(/C=C/c3ccc(N(c4ccc(/C=C/c5ccc6c(c5)Sc5ccccc5N6CCCCCCCC)cc4)c4ccc(/C=C/c5ccc(/C=C/c6ccc(N(c7ccc(/C=C/c8ccc(N(c9ccccc9)c9ccccc9)cc8)cc7)c7ccc(/C=C/c8ccc(N(c9ccccc9)c9ccccc9)cc8)cc7)cc6)c6nsnc56)cc4)cc3)ccc21
absorption maximum (in C1CCOC1): 534 nm
absorption maximum (in CCOC(C)=O): 524 nm
absorption maximum (in CN(C)C=O): 528 nm
absorption maximum (in Cc1ccccc1): 533 nm
absorption maximum (in ClC(Cl)Cl): 534 nm
absorption maximum (in ClCCl): 533 nm

Structure (SMILES): C(#Cc1c(C#Cc2cccs2)c(C#Cc2cccs2)c(C#Cc2cccs2)c(C#Cc2cccs2)c1C#Cc1cccs1)c1cccs1
absorption maximum (in ClCCl): 371 nm

Structure (SMILES): CCOC(=O)c1sc2nc(C)c(C)c(C#N)c2c1N
absorption maximum (in c1ccccc1): 406 nm

Structure (SMILES): CCCCCCCCCCCCn1cccc1/C=C/c1cc(OCCCC)c(/C=C/c2cccn2CCCCCCCCCCCC)cc1OCCCC
absorption maximum (in Cc1ccccc1): 411 nm

Structure (SMILES): CC[N+]1(CC)CN2C(=N1)C(C(=O)O)=Cc1ccc(Cl)cc12
absorption maximum (in O): 367 nm

Structure (SMILES): CC1=CC(/C=C/c2ccc([N+](C)(C)C)cc2)=[N+]2C1=C(c1ccc(C#CCO[C@@H]3O[C@H](CO)[C@@H](O)C(O)[C@H]3O)cc1)c1c(C)cc(/C=C/c3ccc([N+](C)(C)C)cc3)n1[B-]2(F)F (some centres not stated)
absorption maximum (in CC#N): 618 nm

Structure (SMILES): CCC1=C(C)C(=O)n2c1cc1c(CCC(=O)OC)c(C)c(C)n1c2=O
absorption maximum (in CC#N): 420 nm
absorption maximum (in CC(C)=O): 420 nm
absorption maximum (in CO): 426 nm
absorption maximum (in CS(C)=O): 427 nm
absorption maximum (in ClC(Cl)Cl): 429 nm
absorption maximum (in c1ccccc1): 425 nm

Structure (SMILES): CCCCCCCCCCCCCCCCOc1cc(C#Cc2ccc3ccccc3c2-c2c(C#Cc3cc(OCCCCCCCCCCCCCCCC)c(C#Cc4ccc(C=C(C#N)C#N)cc4)cc3OCCCCCCCCCCCCCCCC)ccc3ccccc23)c(OCCCCCCCCCCCCCCCC)cc1C#Cc1ccc(C=C(C#N)C#N)cc1
absorption maximum (in Brc1ccccc1): 442 nm
absorption maximum (in C1CCCCC1): 444 nm
absorption maximum (in C1CCOC1): 425 nm
absorption maximum (in C1COCCO1): 425 nm
absorption maximum (in CCCCCC): 442 nm
absorption maximum (in CCCCCCCCO): 431 nm
absorption maximum (in CCCCOCCCC): 435 nm
absorption maximum (in CCOC(C)=O): 426 nm
absorption maximum (in CCOCC): 429 nm
absorption maximum (in Cc1ccccc1): 436 nm
absorption maximum (in ClC(Cl)(Cl)Cl): 447 nm
absorption maximum (in ClC(Cl)Cl): 446 nm
absorption maximum (in ClCCl): 436 nm

Structure (SMILES): COc1cc2cc(/C=C/c3ccc(/C=C/c4ccc(/C=C(\C#N)C(=O)O)cc4)cc3)c(=O)oc2cc1OC
absorption maximum (in CC#N): 415 nm

Structure (SMILES): Cc1cc(C)c(B(c2ccc(-c3cc4ccc5cccc6ccc(c3)c4c56)cc2)c2c(C)cc(C)cc2C)c(C)c1
absorption maximum (in Cc1ccccc1): 378 nm

Structure (SMILES): O=C(N/N=C/c1ccccc1O)c1ccc([N+](=O)[O-])cc1
absorption maximum (in C1CCOC1): 338 nm
absorption maximum (in CC#N): 339 nm
absorption maximum (in CC(C)=O): 350 nm
absorption maximum (in CCO): 345 nm
absorption maximum (in CN(C)C=O): 380 nm
absorption maximum (in CS(C)=O): 342 nm
absorption maximum (in ClCCl): 340 nm

Structure (SMILES): Cc1cc(-c2nc(-c3ccccc3)nc(-c3ccccc3)n2)ccc1N1c2ccccc2[Si](c2ccccc2)(c2ccccc2)c2ccccc21
absorption maximum (in Cc1ccccc1): 379.03 nm

Structure (SMILES): Cc1nc(-c2cc(F)ccc2O)n2c1CCCC2
absorption maximum (in ClCCl): 326 nm

Structure (SMILES): CN(C)c1ccc(C#Cc2cc(C#Cc3ccc(C(F)(F)F)cc3)c3ccc4c(C#Cc5ccc(N(C)C)cc5)cc(C#Cc5ccc(C(F)(F)F)cc5)c5ccc2c3c45)cc1
absorption maximum (in ClCCl): 509 nm

Structure (SMILES): CC1CC(C)(C)N(C)c2ccc(/C=C/c3ccc(/C=C(\C#N)C(=O)O)s3)cc21 (configuration not stated)
absorption maximum (in ClCCl): 525 nm

Structure (SMILES): CC(C)(C)[Si](C)(C)c1ccc([Si](C)(C)C(C)(C)C)c2ccccc12
absorption maximum (in C1CCCCC1): 302 nm

Structure (SMILES): Nc1cccc2cccc(N)c12
absorption maximum (in CC#N): 349 nm
absorption maximum (in CO): 334 nm
absorption maximum (in CS(C)=O): 354 nm
absorption maximum (in Cc1ccccc1): 334 nm

Structure (SMILES): CC(C)c1cc(C(C)C)c(B2c3cc(N4c5ccccc5Oc5ccccc54)ccc3N(c3ccccc3)c3ccc(N4c5ccccc5Oc5ccccc54)cc32)c(C(C)C)c1
absorption maximum (in C1CCCCC1): 372.79 nm

Structure (SMILES): CCn1c2ccccc2c2cc(-c3cc(-c4ccc5c(c4)c4ccccc4n5CC)nc(OC)n3)ccc21
absorption maximum (in C1CCOC1): 366 nm
absorption maximum (in CCOC(C)=O): 364 nm
absorption maximum (in CN(C)C=O): 369 nm
absorption maximum (in Cc1ccccc1): 365 nm
absorption maximum (in ClCCl): 366 nm

Structure (SMILES): CCN(CC)c1ccc2c(c1)oc(=O)c1c(=O)oc3cc(Br)ccc3c12
absorption maximum (in CS(C)=O): 469 nm
absorption maximum (in ClCCl): 466 nm

Structure (SMILES): COc1ccccc1
absorption maximum (in C1CCCCC1): 267.24 nm

Structure (SMILES): Nc1cc[nH]c(=S)n1
absorption maximum (in CC#N): 283 nm
absorption maximum (in CCO): 280 nm
absorption maximum (in CCOC(C)=O): 286 nm
absorption maximum (in CO): 278 nm
absorption maximum (in CS(C)=O): 285 nm
absorption maximum (in O): 269 nm

Structure (SMILES): CC(C)c1cc(C(C)C)c(B2c3ccccc3Oc3cc(-n4c5ccccc5c5ccc6c(c7ccccc7n6-c6ccccc6)c54)ccc32)c(C(C)C)c1
absorption maximum (in Cc1ccccc1): 438 nm

Structure (SMILES): CCOC(=O)c1c(-c2cc3ccc(OCC=C(C)C)cc3oc2=O)nn(-c2cccc(Cl)c2)c1C(=O)OCC
absorption maximum (in ClCCl): 339 nm

Structure (SMILES): CN(C)c1ccc(/C=C/C=N/N=C/c2ccc3ccc4cccc5ccc2c3c45)cc1
absorption maximum (in CC#N): 426 nm
absorption maximum (in CC(C)(C)O): 420 nm
absorption maximum (in CC(C)=O): 418 nm
absorption maximum (in CC(C)O): 432 nm
absorption maximum (in CCCCO): 433 nm
absorption maximum (in CO): 434 nm
absorption maximum (in CS(C)=O): 438 nm
absorption maximum (in ClC(Cl)Cl): 433 nm
absorption maximum (in ClCCl): 430 nm
absorption maximum (in O): 420 nm

Structure (SMILES): C(#Cc1cc2ccc3cccc4ccc(c1)c2c34)c1ccccc1
absorption maximum (in Cc1ccccc1): 390 nm

Second part, the molecule after the results:

absorption maximum (in ClCCl): 356 nm
Structure (SMILES): N#C/C(=C\c1ccc(-c2ccncc2)cc1)c1ccc(-c2ccncc2)cc1

absorption maximum (in ClC(Cl)Cl): 455 nm
Structure (SMILES): Cc1c2c(c(C)c3ccccc13)-c1c-2ccc2nc3ccccc3nc12

absorption maximum (in ClC(Cl)Cl): 394 nm
Structure (SMILES): C(#Cc1ccccc1)C(C#Cc1ccccc1)=Cc1ccc(-c2ccc(C=C(C#Cc3ccccc3)C#Cc3ccccc3)cc2)cc1

absorption maximum (in ClCCl): 365 nm
Structure (SMILES): CC(C)(C)c1ccc(-n2c(-c3ccc(-c4cccc(-c5c(-c6ccccc6)nc6ccccn56)c4)cc3)nc3c4ccccc4c4ccccc4c32)cc1

absorption maximum (in ClCCl): 280 nm
Structure (SMILES): CN(C)c1ccc(-c2cc(-c3ccccc3)nn2C)cc1

absorption maximum (in C1CCCCC1): 331 nm
Structure (SMILES): c1ccc(-c2c3c(cc4c2-c2ccccc2C4)-c2ccccc2C3)cc1

absorption maximum (in CC#N): 531 nm
absorption maximum (in CCCCCC): 536 nm
absorption maximum (in CCOC(C)=O): 534 nm
absorption maximum (in CO): 536 nm
absorption maximum (in ClCCl): 537 nm
Structure (SMILES): CCCSc1ccc2n1[B-](F)(F)[N+]1=CC=CC1=C2c1ccccc1

absorption maximum (in ClCCl): 355 nm
Structure (SMILES): Clc1ccc(/C=C/c2cnc3ccccc3n2)cc1

absorption maximum (in C1CCCCC1): 382 nm
absorption maximum (in CC#N): 381 nm
absorption maximum (in CO): 372 nm
absorption maximum (in ClCCl): 380 nm
absorption maximum (in O): 390 nm
Structure (SMILES): c1ccc(-c2nc(-c3c[nH]c4ccccc34)n3ccccc23)cc1

absorption maximum (in ClCCl): 475 nm
Structure (SMILES): O=c1c2cccc3cccc(c32)c2nc3cccc4cccc(c43)n12

absorption maximum (in C1CCCCC1): 365 nm
absorption maximum (in CC#N): 379 nm
absorption maximum (in CCO): 387 nm
Structure (SMILES): COc1ccc2c(c1)-c1ccccc1C2=O

absorption maximum (in C1CCCCC1): 300 nm
Structure (SMILES): C[Si](C)(C)c1ccc([Si](C)(C)C)c2ccccc12

absorption maximum (in C1CCOC1): 339 nm
Structure (SMILES): C1=Cc2ccccc2C(=Cc2ccc(-c3ccc(C=C4c5ccccc5C=Cc5ccccc54)cc3)cc2)c2ccccc21

absorption maximum (in CCO): 595 nm
absorption maximum (in ClC(Cl)Cl): 608 nm
absorption maximum (in ClCCl): 607 nm
Structure (SMILES): CCN(CC)c1ccc2c(-c3ccccc3C(=O)O)c3c([o+]c2c1)/C(=C/Nc1ccccc1)CCC3

absorption maximum (in ClC(Cl)Cl): 706 nm
absorption maximum (in ClCCl): 706 nm
Structure (SMILES): COc1ccc2cc(C3=[N+]4C(=Nc5c(-c6ccccc6)cc(-c6ccc7cc(OC)ccc7c6)n5[B-]4(F)F)C(c4ccccc4)=C3)ccc2c1

absorption maximum (in O): 306 nm
Structure (SMILES): O=c1ccc2ccccc2o1

absorption maximum (in CC1CCCO1): 460 nm
Structure (SMILES): CCCCCCOc1cc2cc(=O)oc3ccc4cccc1c4c23

absorption maximum (in ClCCl): 684 nm
Structure (SMILES): COC(=O)c1ccc(C2=C3C=c4sc(-c5cccs5)cc4=[N+]3[B-](F)(F)n3c2cc2sc(-c4cccs4)cc23)cc1

absorption maximum (in ClCCl): 374 nm
Structure (SMILES): CCn1c2ccccc2c2cc(/C=C(\C#N)c3ccccc3)ccc21

absorption maximum (in ClC(Cl)Cl): 650 nm
Structure (SMILES): CN1C(=CC2=C([S-])C(=CC3=[N+](C)c4ccccc4C3(C)C)C2=O)C(C)(C)c2ccccc21
